These results are taken from patent publication US12473301B2, “Isoquinoline compounds for the treatment of cancer” (Genentech, Inc., priority 2018, dated 2025).

pKi: −log10 of the molar value.

Chain of HPK1 (Q92918 whole entry T165E/S171E): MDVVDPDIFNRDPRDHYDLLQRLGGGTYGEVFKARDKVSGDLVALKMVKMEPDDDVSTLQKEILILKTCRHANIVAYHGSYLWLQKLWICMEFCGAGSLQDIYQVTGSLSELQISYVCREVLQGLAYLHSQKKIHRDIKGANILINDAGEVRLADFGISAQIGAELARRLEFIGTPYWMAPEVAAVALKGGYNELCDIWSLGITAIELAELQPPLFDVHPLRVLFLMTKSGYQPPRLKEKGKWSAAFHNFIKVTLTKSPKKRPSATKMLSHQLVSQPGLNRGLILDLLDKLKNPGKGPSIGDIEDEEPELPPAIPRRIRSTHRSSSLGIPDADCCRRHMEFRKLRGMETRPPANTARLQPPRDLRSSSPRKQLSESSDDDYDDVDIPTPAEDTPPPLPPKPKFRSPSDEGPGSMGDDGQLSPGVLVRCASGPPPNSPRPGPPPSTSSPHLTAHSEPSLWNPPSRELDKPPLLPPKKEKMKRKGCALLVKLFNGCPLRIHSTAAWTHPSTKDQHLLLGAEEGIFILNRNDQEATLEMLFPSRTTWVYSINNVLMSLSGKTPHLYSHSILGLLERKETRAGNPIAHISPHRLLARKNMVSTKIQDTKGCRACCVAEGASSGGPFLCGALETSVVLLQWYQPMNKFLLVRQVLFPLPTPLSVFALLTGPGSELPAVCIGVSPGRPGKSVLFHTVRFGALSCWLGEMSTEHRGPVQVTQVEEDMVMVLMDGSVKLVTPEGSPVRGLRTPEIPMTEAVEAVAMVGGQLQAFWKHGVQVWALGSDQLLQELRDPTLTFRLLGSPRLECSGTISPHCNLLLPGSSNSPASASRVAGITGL

The target in this experiment is HPK1 (Homo sapiens (Human), UniProt Q92918, S171E/T165E). The experiment is described as follows: HPK1-FL HTRF Enzymatic Assay ("HTRF"). The class given is biochemical. Particulars: HPK full length, ATP 1 mM. The protocol:
HPK1-FL HTRF Enzymatic Assay (“HTRF”)
HPK-FL enzyme phosphorylates Biotin-SLP-76 substrate in the presence of ATP at 1 mM and varying concentrations of test compound. Product is detected by FRET using Eu-anti-pSLP76 Ab and SA-XL665. Also see www.cisbio.com/HTRF for additional HTRF technology information.
Instrumentation: Echo555 compound dispenser; Agilent Bravo; Perkin Elmer Envision.
To a 384 well Proxiplate with 80 nL compound or DMSO spotted on was added 4 μl/well kinase mix. The mixture was preincubated for 30 minutes and then 4 μl/well substrate mix was added. The solution was incubated for 60 min and then 4 μl/well detection mix was added. The solution was incubated for another 60 min. The plates were then loaded onto a
Perkin Elmer Envision and the TR-FRET signal was measured at […] and 665 nm. A ratio of 665/620 was used to calculate the % activity at each concentration of compound.
For the compound `Cc1c(-c2cc3cc(NC(=O)OCC4(F)CCNC4)ncc3cc2F)cnc2c1NCCO2` (racemic) [Compound 106, (3-Fluoropyrrolidin-3-yl)methyl (7-fluoro-6-(8-methyl-2,3-dihydro-1H-pyrido[2,3-b][1,4]oxazin-7-yl)isoquinolin-3-yl)carbamate], the pKi was 8.62.
`Cc1c(-c2cc3cc(NC(=O)OCC4CCNC4)ncc3cc2F)cnc2c1NCCO2` (racemic) [Compound 107, Pyrrolidin-3-ylmethyl (7-fluoro-6-(8-methyl-2,3-dihydro-1H-pyrido[2,3-b][1,4]oxazin-7-yl)isoquinolin-3-yl)carbamate] showed a pKi of 8.68. This pKi and that of the compound before are within 0.2 log units of each other.
The result for `Cc1c(-c2cc3cc(NC(=O)OC4COC5(CCNC5)C4)ncc3cc2F)cnc2c1NCCO2` (racemic) [Compound 108, 1-Oxa-7-azaspiro[4.4]nonan-3-yl (7-fluoro-6-(8-methyl-2,3-dihydro-1H-pyrido[2,3-b][1,4]oxazin-7-yl)isoquinolin-3-yl)carbamate] reads 8.40.
The result for `Cc1c(-c2cc3cc(NC(=O)OCC(C)N)ncc3cc2F)cnc2c1NCCO2` (racemic) [Compound 110, 2-Aminopropyl (7-fluoro-6-(8-methyl-2,3-dihydro-1H-pyrido[2,3-b][1,4]oxazin-7-yl)isoquinolin-3-yl)carbamate] reads 7.54.
The result for `COC(C)CCOC(=O)Nc1cc2cc(-c3cnc4c(c3C)NCCO4)c(F)cc2cn1` (racemic) [Compound 114, 3-Methoxybutyl (7-fluoro-6-(8-methyl-2,3-dihydro-1H-pyrido[2,3-b][1,4]oxazin-7-yl)isoquinolin-3-yl)carbamate] reads 8.82.
In the case of `Cc1c(-c2cc3cc(NC(=O)OCC4CCCCO4)ncc3cc2F)cnc2c1NCCO2` (racemic) [Compound 116, (Tetrahydro-2H-pyran-2-yl)methyl (7-fluoro-6-(8-methyl-2,3-dihydro-1H-pyrido[2,3-b][1,4]oxazin-7-yl)isoquinolin-3-yl)carbamate], the pKi is 8.12.
Regarding `Cc1c(-c2cc3cc(NC(=O)OCC45CC4CCN5)ncc3cc2F)cnc2c1NCCO2` (racemic) [Compound 122, (2-Azabicyclo[3.1.0]hexan-1-yl)methyl (7-fluoro-6-(8-methyl-2,3-dihydro-1H-pyrido[2,3-b][1,4]oxazin-7-yl)isoquinolin-3-yl)carbamate], the pKi is 7.62.
The result for `Cc1c(-c2cc3cc(NC(=O)OC4CCC45CCNC5)ncc3cc2F)cnc2c1NCCO2` (racemic) [Compound 123, 6-Azaspiro[3.4]octan-1-yl (7-fluoro-6-(8-methyl-2,3-dihydro-1H-pyrido[2,3-b][1,4]oxazin-7-yl)isoquinolin-3-yl)carbamate] reads 8.12; that for `Cc1c(-c2cc3cc(NC(=O)O[C@H]4CCCC[C@@H]4C#N)ncc3c(Cl)c2F)cnc2c1NCCO2` (single isomer, unassigned) [Compound 126a], 6.31; that for `Cc1c(-c2cc3cc(NC(=O)O[C@@H]4CCCC[C@H]4C#N)ncc3c(Cl)c2F)cnc2c1NCCO2` (single isomer, unassigned) [Compound 126b], 9.02.
The result for `Cc1c(-c2cc3cc(NC(=O)O[C@@H]4CCC[C@H]4C#N)ncc3c(Cl)c2F)cnc2c1NCCO2` (single isomer, unassigned) [Compound 127a] reads 9.09.
`Cc1c(-c2cc3cc(NC(=O)O[C@H]4CCC[C@@H]4C#N)ncc3c(Cl)c2F)cnc2c1NCCO2` (single isomer, unassigned) [Compound 127b] showed a pKi of 8.43. This pKi is 0.66 log units lower than that of the compound before.
For `Cc1c(-c2cc3cc(NC(=O)O[C@@H]4CCC[C@H]4C#N)ncc3cc2F)cnc2c1NCCO2` (single isomer, unassigned) [Compound 128a], the pKi was 8.60. This pKi and that of the compound before are within 0.2 log units of each other.
For `Cc1c(-c2cc3cc(NC(=O)O[C@H]4CCC[C@@H]4C#N)ncc3cc2F)cnc2c1NCCO2` (single isomer, unassigned) [Compound 128b], the pKi is 9.11.
The result for `Cc1c(-c2cc3cc(NC(=O)NC(C)c4cnn(C)c4)ncc3cc2F)cnc2c1NCCO2` (single isomer, unassigned) [Compound 201a] reads 9.02; that for `Cc1c(-c2cc3cc(NC(=O)NC(C)c4cnn(C)c4)ncc3cc2F)cnc2c1NCCO2` (single isomer, unassigned) [Compound 201b], 8.00; that for `Cc1c(-c2cc3cc(NC(=O)NC(C)CC#N)ncc3cc2F)cnc2c1NCCO2` (single isomer, unassigned) [Compound 203a], 8.40.
The result for `Cc1c(-c2cc3cc(NC(=O)NC(C)CC#N)ncc3cc2F)cnc2c1NCCO2` (single isomer, unassigned) [Compound 203b] reads 8.96; that for `Cc1c(-c2cc3cc(NC(=O)NC4CCOC4)ncc3cc2F)cnc2c1NCCO2` (single isomer, unassigned) [Compound 206a], 9.06.
In turn, `Cc1c(-c2cc3cc(NC(=O)NC4CCOC4)ncc3cc2F)cnc2c1NCCO2` (single isomer, unassigned) [Compound 206b] had a pKi of 8.60.
The result for `CC[C@@H]1[C@@H](C(=O)Nc2cc3cc(-c4cnc5c(c4C)NCCO5)c(F)cc3cn2)[C@@H]1c1cnn(C)c1` (single isomer, unassigned) [Compound 301a] reads 9.05; that for `CC[C@H]1[C@H](C(=O)Nc2cc3cc(-c4cnc5c(c4C)NCCO5)c(F)cc3cn2)[C@H]1c1cnn(C)c1` (single isomer, unassigned) [Compound 301b], 8.10.
For `CC[C@H]1[C@@H](C(=O)Nc2cc3cc(-c4cnc5c(c4C)NCCO5)c(F)cc3cn2)[C@@H]1c1cnn(C)c1` (single isomer, unassigned) [Compound 301d], the pKi was 8.74. This pKi lies 0.64 log units higher than the previous one.
The result for `Cc1c(-c2cc3cc(NC(=O)OCC4CC4)ncc3cc2F)cnc2c1NCCO2` [Compound 101, Cyclopropylmethyl (7-fluoro-6-(8-methyl-2,3-dihydro-1H-pyrido[2,3-b][1,4]oxazin-7-yl)isoquinolin-3-yl)carbamate] reads 8.57.
In turn, `Cc1c(N)cncc1-c1cc2cc(NC(=O)OCC3CC3)ncc2cc1F` [Compound 102, Cyclopropylmethyl (6-(5-amino-4-methylpyridin-3-yl)-7-fluoroisoquinolin-3-yl)carbamate] showed a pKi of 7.35.
The result for `Cc1c(-c2cc3cc(NC(=O)OC4CCOCC4)ncc3cc2F)cnc2c1NCCO2` [Compound 103, Tetrahydro-2H-pyran-4-yl (7-fluoro-6-(8-methyl-2,3-dihydro-1H-pyrido[2,3-b][1,4]oxazin-7-yl)isoquinolin-3-yl)carbamate] reads 8.30.
`CC(=O)N1CC(OC(=O)Nc2cc3cc(-c4cnc5c(c4C)NCCO5)c(F)cc3cn2)C1` [Compound 104, 1-Acetylazetidin-3-yl (7-fluoro-6-(8-methyl-2,3-dihydro-1H-pyrido[2,3-b][1,4]oxazin-7-yl)isoquinolin-3-yl)carbamate] had a pKi of 8.54.
In turn, `CNC(=O)N1CC(OC(=O)Nc2cc3cc(-c4cnc5c(c4C)NCCO5)c(F)cc3cn2)C1` [Compound 105, 1-(Methylcarbamoyl)azetidin-3-yl (7-fluoro-6-(8-methyl-2,3-dihydro-1H-pyrido[2,3-b][1,4]oxazin-7-yl)isoquinolin-3-yl)carbamate] showed a pKi of 9.04.
